Experimental data published in US11168102B1, “Bicyclic heteroaryl compounds and uses thereof” (Revolution Medicines, Inc., priority 2019, dated 2021).

tested on: cellular pERK in PC-9 cells (EGFR Ex19Del); experiment: Potency assay: pERK (AlphaLISA SureFire Ultra p-ERK1/2) in PC-9 cells; type: cell-based; settings: Homo sapiens, PC-9, 1 h, PC-9 cells (EGFR Ex19Del), 1 hour incubation, AlphaLISA SureFire Ultra p-ERK1/2; read-out: SOS1 pERK IC50

Structure (SMILES)	IC50 [nM]
C[C@@H](Nc1ncnc2c1cc(C1=CCS(=N)(=O)CC1)c(=O)n2C)c1cccc(C(F)F)c1F (stereo partly drawn) [Example 23, 4-(((R)-1-(3-(difluoromethyl)-2-fluorophenyl)ethyl)amino)-6-(1-imino-1-oxido-1,2,3,6-tetrahydro-1λ^6-thiopyran-4-yl)-8-methylpyrido[2,3-d]pyrimidin-7(8H)-one]	48.5
Cc1nc(N[C@H](C)c2cccc(C(F)(F)CO)c2)c2cc(C3=CCOCC3)c(=O)n(C)c2n1 [Example 3, (R)-4-((1-(3-(1,1-difluoro-2-hydroxyethyl)phenyl)ethyl)amino)-6-(3,6-dihydro-2H-pyran-4-yl)-2,8-dimethylpyrido[2,3-d]pyrimidin-7(8H)-one]	79.4
Cc1nc(N[C@H](C)c2cccc(C(F)F)c2F)c2cc(C3CCNCC3)c(=O)n(C)c2n1 [Example 1-31]	568
C[C@@H](Nc1ncnc2c1cc(C(=O)N1CCC13CS(=O)(=O)C3)c(=O)n2C)c1cccc(C(F)F)c1F [Example 26-52]	152
COC1(c2cc3c(N[C@H](C)c4ccnc(C(F)F)c4F)ncnc3n(C)c2=O)CCN(C(C)=O)CC1 [Example 71, 6-(1-acetyl-4-methoxy-4-piperidyl)-4-[[(1R)-1-[2-(difluoromethyl)-3-fluoro-4-pyridyl]ethyl]amino]-8-methyl-pyrido-[2,3-d]pyrimidin-7-one]	528
CC(=O)NC1(c2cc3c(N[C@H](C)c4cccc(C(F)F)c4F)ncnc3n(C)c2=O)CCS(=O)(=O)CC1 [Example 31-3]	777
Cc1nc(N[C@H](C)c2cc(N)cc(C(F)(F)F)c2)c2cc(C3CCNCC3)c(=O)[nH]c2n1 [Example 8, (R)-4-((1-(3-amino-5-(trifluoromethyl)phenyl)ethyl)amino)-2-methyl-6-(piperidin-4-yl)pyrido[2,3-d]pyrimidin-7(8H)-one]	2130
C[C@@H](Nc1ncnc2c1cc(C1(F)CCS(=O)(=O)C1)c(=O)n2C)c1cccc(C(F)F)c1F (stereo partly drawn) [Example 29-11]	44.3
C[C@@H](Nc1ncnc2c1cc(C1(N)CCS(=O)(=O)CC1)c(=O)n2C)c1cccc(C(F)F)c1F [Example 31-1]	45.6
CC(=O)N1CC2(CCN2C(=O)c2cc3c(N[C@H](C)c4cccc(C(F)F)c4F)ncnc3n(C)c2=O)C1 [Example 26-51]	445
Cc1nc(N[C@H](C)c2cccc(C(F)F)c2F)c2cc(C(=O)N3CCOCC3)c(=O)n(C)c2n1 [Example 26, 4-{[(1R)-1-[3-(difluoromethyl)-2-fluorophenyl]ethyl]amino}-2,8-dimethyl-6-(morpholine-4-carbonyl)-7H,8H-pyrido[2,3-d]pyrimidin-7-one]	388
CC(=O)N1CCC(C#N)(c2cc3c(N[C@H](C)c4cccc(C(F)F)c4F)ncnc3n(C)c2=O)CC1 [Example 36, 1-acetyl-4-(4-{[(1R)-1-[3-(difluoromethyl)-2-fluorophenyl]ethyl]amino}-8-methyl-7-oxo-7H,8H-pyrido[2,3-d]pyrimidin-6-yl)piperidine-4-carbonitrile]	28.1
CCC1(O)CN(C(=O)c2cc3c(N[C@H](C)c4cccc(C(F)F)c4F)ncnc3n(C)c2=O)C1 [Example 26-8]	252
C[C@@H](Nc1ncnc2c1cc(C1=CCN(CC(F)(F)F)CC1)c(=O)n2C)c1cccc(C(F)F)c1F [Example 1-27]	313
C[C@@H](Nc1ncnc2c1cc(C1(F)CCS(=N)(=O)CC1)c(=O)n2C)c1cccc(C(F)F)c1F (stereo partly drawn) [Example 29-14]	35.5
CC(=O)N1CC=C(c2cc3c(N[C@H](C)c4cccc(C(F)(F)F)c4F)ncnc3n(C)c2=O)CC1 [Example 1-24]	106
C[C@@H](Nc1ncnc2c1cc(C(=O)N1CCC[C@@H]1c1nnn[nH]1)c(=O)n2C)c1cccc(C(F)F)c1F [Example 26-39]	> 10000
C[C@@H](Nc1ncnc2c1cc(C(=O)N1C3CCC1CN(C)C3)c(=O)n2C)c1cccc(C(F)F)c1F [Example 26-32]	216

Further lines, results first:

IC50 [nM]	Structure (SMILES)
44	COCC(=O)N1CCC(OC)(c2cc3c(N[C@H](C)c4cccc(C(F)F)c4F)ncnc3n(C)c2=O)CC1 [Example 32-13]
172	COC1(c2cc3c(N[C@H](C)c4cccc(C(F)F)c4F)ncnc3n(C)c2=O)C[C@H](C)N(C(C)=O)C1 (stereo partly drawn) [Example 32-38]
199	CO[C@@]1(c2cc3c(N[C@H](C)c4cccc(C(F)F)c4F)ncnc3n(C)c2=O)CCN(C(C)=O)C(C)(C)C1 [Example 32-53]
77.6	CO[C@]1(c2cc3c(N[C@H](C)c4cccc(C(F)F)c4F)ncnc3n(C)c2=O)C[C@@H](C)N(C(C)=O)C1 [Example 32-47]
39.1	COC1(c2cc3c(N[C@H](C)c4cccc(C(F)F)c4F)ncnc3n(C)c2=O)CCN(S(C)(=O)=O)C1 (stereo partly drawn) [Example 32-6]
180	COC1(c2cc3c(N[C@H](C)c4cccc(C(F)F)c4F)ncnc3n(C)c2=O)C2CCC1CN(C(C)=O)C2 (stereo partly drawn) [Example 32-22]
44	CC(=O)N1CC[C@](C#N)(c2cc3c(N[C@H](C)c4cccc(C(F)F)c4F)ncnc3n(C)c2=O)C1 [Example 36-10]
92.5	C[C@@H](Nc1ncnc2c1cc(C1CCS(=O)(=O)CC1)c(=O)n2C)c1cccc(C(F)F)c1Cl [Example 33-4]
34.8	C[C@@H](Nc1ncnc2c1cc(C1CCS(=O)(=O)CC1)c(=O)n2C)c1cccc2c1OCC2(F)F [Example 33-3]
236	CO[C@@]1(c2cc3c(N[C@H](C)c4cccc(C(F)F)c4F)ncnc3n(C)c2=O)CCN(C(C)=O)[C@@H](C)C1 [Example 32-30]
87.9	C[C@@H](Nc1ncnc2c1cc(C1(OC3CC3)CCS(=O)(=O)CC1)c(=O)n2C)c1cccc(C(F)F)c1F [Example 32-27]
1310	COC1(c2cc3c(N[C@H](C)c4cccc(C(F)F)c4F)ncnc3n(C)c2=O)C[C@H]2C[C@@H]1CN2C(C)=O (stereo partly drawn) [Example 32-14]

same assay, conditions: Homo sapiens, PC-9, 1 h, read-out: SOS1 pERK IC50

Structure (SMILES)	IC50 [nM]
C[C@@H](Nc1ncnc2c1cc(C1(N)CCC3(CC1)CS(=O)(=O)C3)c(=O)n2C)c1cccc(C(F)F)c1F [Example 31-5]	26.7
C[C@@H](Nc1ncnc2c1cc(C1(O)CCN(C)CC1)c(=O)n2C)c1cccc(C(F)F)c1F [Example 28-1]	187
Cc1nc(N[C@H](C)c2cccc(C(F)F)c2F)c2cc(C3(O)CCN(C)CC3)c(=O)n(C)c2n1 [Example 28-2]	572

same assay, conditions: PC-9 cells (EGFR Ex19Del), 1 hour incubation, AlphaLISA SureFire Ultra p-ERK1/2; read-out: SOS1 pERK IC50

Structure (SMILES)	IC50 [nM]
C[C@@H](Nc1ncnc2c1cc(C1CCS(=O)(=O)C1)c(=O)n2C)c1cccc(C(F)F)c1F (stereo partly drawn) [Example 33-20]	52.7
CN=S1(=O)CCC(F)(c2cc3c(N[C@H](C)c4cccc(C(F)F)c4F)ncnc3n(C)c2=O)CC1 (stereo partly drawn) [Example 52, 4-(((R)-1-(3-(difluoromethyl)-2-fluorophenyl)ethyl)amino)-6-((1R,4r)-4-fluoro-1-(methylimino)-1-oxidohexahydro-1λ-thiopyran-4-yl)-8-methylpyrido[2,3-d]pyrimidin-7(8H)-one]	70.6
COC1(c2cc3c(N[C@H](C)c4cccc(C(F)F)c4F)ncnc3n(C)c2=O)CCS(=O)(=NC2CC2)CC1 (single isomer, unassigned) [Example 68]	201

Other lines, results leading:

IC50 [nM]	Structure (SMILES)
53.7	CC(=O)N1CCC2(c3cc4c(N[C@H](C)c5cccc(C(F)F)c5F)ncnc4n(C)c3=O)CC2C1 (single isomer, unassigned) [Example 54-1]
148	COC1(c2cc3c(N[C@H](C)c4cccc(C(F)F)c4F)ncnc3n(C)c2=O)CCP(C)(=O)CC1 (stereo partly drawn) [Example 32-46]
71.1	COC1(c2cc3c(N[C@H](C)c4cccc(C(F)F)c4F)ncnc3n(C)c2=O)CCCS(=O)(=O)CC1 (stereo partly drawn) [Example 32-34]
